ChEMBL document CHEMBL1201862, “PubChem BioAssay data set” (2004)
Calls of active or inactive are those of the source.

Key:
[1] = molecular target: Neuropeptides B/W receptor type 1 (Homo sapiens, UniProt P48145); experiment: Fluorescence-based dose response cell-based high throughput screening assay to identify antagonists of the G-protein coupled receptor 7 (GPR7). [Related pubchem assays: 1952 (Screening assay (GPR7 antagonists).), 1880 (Summary AID.)]; assay type: functional
[2] = molecular target: Melanin-concentrating hormone receptor 1 (Homo sapiens, UniProt Q99705); experiment: Fluorescence-based counterscreen for antagonists of the G-protein coupled receptor 7 (GPR7): cell-based high throughput dose response assay to identify antagonists of the melanin-concentrating hormone receptor 1 (MCHR1).; assay type: functional
Sequence of Melanin-concentrating hormone receptor 1 (Q99705 whole entry): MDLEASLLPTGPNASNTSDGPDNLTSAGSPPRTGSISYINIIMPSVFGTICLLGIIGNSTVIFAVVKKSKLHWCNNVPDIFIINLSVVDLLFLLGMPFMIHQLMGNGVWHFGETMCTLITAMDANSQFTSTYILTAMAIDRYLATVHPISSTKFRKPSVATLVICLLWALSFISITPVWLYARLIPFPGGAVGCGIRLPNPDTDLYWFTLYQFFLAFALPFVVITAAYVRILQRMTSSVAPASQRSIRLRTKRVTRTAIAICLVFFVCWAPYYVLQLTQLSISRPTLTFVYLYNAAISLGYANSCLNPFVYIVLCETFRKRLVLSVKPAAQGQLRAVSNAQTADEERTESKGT

[3] = reduction of Shn3 3'UTR-driven luciferase in osteoblasts – cell-based, Clone20 osteoblasts, firefly luciferase, cherry-picked, dose response (AID 624132); assay type: functional;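 also: firefly luciferase luminescence from reporter carrying the Shn3 3'UTR in osteoblasts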
Beta Lactamase = Beta Lactamase (Pseudomonas aeruginosa, UniProt Q932Y6); experiment: BLA reporter interference, concentration series – BLA reporter cells, FRET fluorescence, artefact control for NOD2-RIPK2 interaction inhibitor project, dose response (AID 651552); assay type: functional, cell-based
Sequence of Beta Lactamase (Q932Y6 whole entry): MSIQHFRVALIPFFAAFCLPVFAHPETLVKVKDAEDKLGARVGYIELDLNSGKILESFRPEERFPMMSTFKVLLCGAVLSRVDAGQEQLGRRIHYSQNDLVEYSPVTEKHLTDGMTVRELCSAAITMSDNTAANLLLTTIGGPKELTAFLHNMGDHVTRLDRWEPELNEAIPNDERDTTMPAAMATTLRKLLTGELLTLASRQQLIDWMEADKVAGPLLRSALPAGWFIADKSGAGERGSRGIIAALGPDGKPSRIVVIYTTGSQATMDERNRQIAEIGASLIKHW

[4] = loss of viability in HepG2 cells – cell-based, CellTiter-Glo, cherry-picked, cytotoxicity control for Shn3 inhibitor project, dose response (AID 624134); assay type: functional
Streptokinase A = molecular target: T1, Streptokinase A (Streptococcus pyogenes serotype M1, UniProt P10520); experiment: viability-normalized secreted streptokinase activity reduction – plasminogen activation absorbance, OD405, dose response (AID 1914); assay type: functional, Streptococcus pyogenes M1 GAS;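 also: secreted streptokinase activity via plasminogen activation per viability signal from cell pellet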
T1 sequence (P10520 whole entry): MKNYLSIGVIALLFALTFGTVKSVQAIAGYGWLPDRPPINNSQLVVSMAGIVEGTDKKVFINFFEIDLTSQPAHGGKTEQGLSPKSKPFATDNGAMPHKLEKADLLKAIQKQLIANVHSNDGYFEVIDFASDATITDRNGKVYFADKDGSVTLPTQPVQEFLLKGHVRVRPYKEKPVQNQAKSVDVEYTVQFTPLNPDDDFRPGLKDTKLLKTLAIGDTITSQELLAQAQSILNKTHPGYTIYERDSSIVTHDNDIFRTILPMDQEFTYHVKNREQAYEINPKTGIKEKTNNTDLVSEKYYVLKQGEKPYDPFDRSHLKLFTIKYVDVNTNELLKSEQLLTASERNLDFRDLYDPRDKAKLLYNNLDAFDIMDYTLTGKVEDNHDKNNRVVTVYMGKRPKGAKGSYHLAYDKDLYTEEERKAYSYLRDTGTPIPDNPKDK

[5] = non-specific 3'UTR reporter inhibition in Clone20-Shn3RL – cell-based, Renilla luciferase, cherry-picked, counter-screen for Shn3 inhibitor project, dose response (AID 624133); assay type: functional
[6] = Fluorescence-based cell-based high throughput dose response assay for inhibitors of the interaction of nucleotide-binding oligomerization domain containing 2 (NOD2) and the receptor-interacting serine-threonine kinase 2 (RIPK2).; assay type: functional; settings: Homo sapiens
Streptococcus [7] = experiment: GAS UMAA2166 growth inhibition – luminescence, BacTiterGlo, counter-screen for streptokinase expression inhibitor project, dose response (AID 1915); assay type: functional, organism-based;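 also: potency for reduction of bacterial viability or growth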
Streptococcus [8] = experiment: Luminescence Microorganism-Based Dose Response Follow up to Identify Compounds Cytotoxic to Streptococcus. [Related pubchem assays: 1677 (Project Summary), 1915, 1914, 1902 (Retest at Dose), 1900 (Counter Screen), 1662 (Primary HTS)]; assay type: functional, organism-based
[9] = tested on: Streptococcus sp. 'group A'; experiment: Streptococcus pyogenes SK(-)GAS viability under kanamycin – luminescence, BacTiterGlo, confirmation, counter-screen for streptokinase expression inhibitor project, dose response (AID 1900); assay type: functional, organism-based
Fatty acid synthase [10] = molecular target: T2, Fatty acid synthase (Homo sapiens, UniProt P49327); experiment: inhibition of human FAS-TE enzyme activity – biochemical, kinetic fluorescence intensity, dose response (AID 624326); assay type: functional;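 also: rate of fluorescence rise from hydrolysis of a fluorogenic O-methyl fluorescein ester substrate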
T2 sequence (P49327 whole entry): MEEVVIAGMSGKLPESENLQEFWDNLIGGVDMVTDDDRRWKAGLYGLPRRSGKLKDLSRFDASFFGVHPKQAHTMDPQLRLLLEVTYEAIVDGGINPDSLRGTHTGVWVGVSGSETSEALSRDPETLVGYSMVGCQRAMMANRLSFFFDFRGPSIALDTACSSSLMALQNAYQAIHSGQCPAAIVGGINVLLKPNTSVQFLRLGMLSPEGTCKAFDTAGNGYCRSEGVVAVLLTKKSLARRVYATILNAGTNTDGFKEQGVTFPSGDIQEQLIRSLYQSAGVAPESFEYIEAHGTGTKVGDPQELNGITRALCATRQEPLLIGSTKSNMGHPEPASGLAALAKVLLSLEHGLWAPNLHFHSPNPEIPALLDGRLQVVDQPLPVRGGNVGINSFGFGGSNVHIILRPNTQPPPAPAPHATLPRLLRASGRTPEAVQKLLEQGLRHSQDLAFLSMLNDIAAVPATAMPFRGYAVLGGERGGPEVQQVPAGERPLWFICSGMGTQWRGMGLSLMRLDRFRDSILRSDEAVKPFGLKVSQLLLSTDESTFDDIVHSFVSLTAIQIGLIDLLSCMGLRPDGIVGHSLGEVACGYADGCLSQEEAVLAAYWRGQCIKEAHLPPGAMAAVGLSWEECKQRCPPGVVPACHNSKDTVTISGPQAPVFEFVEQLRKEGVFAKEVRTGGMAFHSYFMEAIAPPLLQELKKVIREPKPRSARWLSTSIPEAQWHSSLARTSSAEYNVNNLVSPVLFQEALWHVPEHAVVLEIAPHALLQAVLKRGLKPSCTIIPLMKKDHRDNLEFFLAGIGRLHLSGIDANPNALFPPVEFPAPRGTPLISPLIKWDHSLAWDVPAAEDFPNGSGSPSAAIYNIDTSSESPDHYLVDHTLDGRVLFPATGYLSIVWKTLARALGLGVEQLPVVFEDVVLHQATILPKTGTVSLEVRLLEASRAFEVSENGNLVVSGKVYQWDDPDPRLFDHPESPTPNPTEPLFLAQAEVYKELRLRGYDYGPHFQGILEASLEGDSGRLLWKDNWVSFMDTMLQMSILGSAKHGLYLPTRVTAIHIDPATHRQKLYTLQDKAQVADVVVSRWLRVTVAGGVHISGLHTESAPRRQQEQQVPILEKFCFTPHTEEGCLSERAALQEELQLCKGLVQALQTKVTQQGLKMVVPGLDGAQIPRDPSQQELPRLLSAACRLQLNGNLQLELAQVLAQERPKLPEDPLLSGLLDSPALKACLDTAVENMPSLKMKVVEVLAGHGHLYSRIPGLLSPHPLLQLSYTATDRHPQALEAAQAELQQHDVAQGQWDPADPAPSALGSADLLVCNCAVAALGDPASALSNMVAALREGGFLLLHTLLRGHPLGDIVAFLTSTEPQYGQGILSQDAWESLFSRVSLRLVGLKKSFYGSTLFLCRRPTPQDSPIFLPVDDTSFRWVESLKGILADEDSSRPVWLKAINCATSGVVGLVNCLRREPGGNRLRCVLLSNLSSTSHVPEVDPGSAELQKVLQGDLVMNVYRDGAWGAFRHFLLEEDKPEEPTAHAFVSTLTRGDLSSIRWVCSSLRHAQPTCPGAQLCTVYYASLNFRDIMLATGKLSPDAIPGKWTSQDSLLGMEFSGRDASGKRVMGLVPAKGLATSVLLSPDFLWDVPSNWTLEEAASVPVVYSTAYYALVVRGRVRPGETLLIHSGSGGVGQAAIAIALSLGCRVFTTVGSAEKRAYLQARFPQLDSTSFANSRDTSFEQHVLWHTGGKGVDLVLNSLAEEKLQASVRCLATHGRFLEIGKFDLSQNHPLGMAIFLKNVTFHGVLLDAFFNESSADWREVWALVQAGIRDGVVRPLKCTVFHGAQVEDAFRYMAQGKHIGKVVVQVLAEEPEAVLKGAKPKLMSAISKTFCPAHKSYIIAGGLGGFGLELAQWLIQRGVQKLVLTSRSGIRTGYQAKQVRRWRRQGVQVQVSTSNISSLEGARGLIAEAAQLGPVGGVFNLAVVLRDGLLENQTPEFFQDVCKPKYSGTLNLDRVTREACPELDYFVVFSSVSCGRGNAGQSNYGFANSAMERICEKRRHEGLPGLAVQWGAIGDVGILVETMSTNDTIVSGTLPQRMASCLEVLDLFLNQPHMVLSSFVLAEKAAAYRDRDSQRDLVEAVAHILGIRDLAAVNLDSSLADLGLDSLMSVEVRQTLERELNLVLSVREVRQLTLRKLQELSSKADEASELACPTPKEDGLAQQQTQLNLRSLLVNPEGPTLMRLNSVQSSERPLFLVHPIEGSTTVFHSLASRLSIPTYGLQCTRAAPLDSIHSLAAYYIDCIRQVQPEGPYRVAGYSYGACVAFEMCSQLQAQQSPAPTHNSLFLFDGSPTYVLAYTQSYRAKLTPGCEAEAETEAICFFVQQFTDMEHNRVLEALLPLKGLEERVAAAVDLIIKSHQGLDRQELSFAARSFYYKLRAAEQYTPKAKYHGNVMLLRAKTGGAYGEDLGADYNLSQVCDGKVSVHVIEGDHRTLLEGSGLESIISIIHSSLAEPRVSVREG

Fatty acid synthase [11] = molecular target: T2, Fatty acid synthase; experiment: inhibition of human FAS-TE enzyme activity – biochemical, endpoint fluorescence intensity, uHTS hits, dose response (AID 624327); assay type: functional;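 also: fluorescence from hydrolysis of an O-methyl fluorescein acyl ester substrate by the enzyme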
[12] = molecular target: Heat shock protein HSP 90-alpha (Homo sapiens, UniProt P07900); assay type: functional, organism-based
[13] = molecular target: Acyl-homoserine lactone acylase PvdQ (Pseudomonas aeruginosa (strain LESB58), UniProt Q9I194); experiment: PvdQ acylase enzyme activity blockers – biochemical, fluorescence, plate reader and imaging, cherry-picks, dose response (AID 493231)
Staphylococcus aureus = experiment: Inhibitors of Bacterial Quorum Sensing Structure Activity Relationship (SAR) Analysis: Dose Response Assay. [Related pubchem assays: 700, 527 ]; assay type: functional, organism-based
[14] = molecular target: T3, Neuropeptide Y receptor type 1 (Homo sapiens, UniProt P25929); experiment: Fluorescence-based counterscreen for agonists of NPY-Y2: cell-based high-throughput dose response assay for agonists of NPY-Y1.; assay type: functional
T3 sequence (P25929 whole entry): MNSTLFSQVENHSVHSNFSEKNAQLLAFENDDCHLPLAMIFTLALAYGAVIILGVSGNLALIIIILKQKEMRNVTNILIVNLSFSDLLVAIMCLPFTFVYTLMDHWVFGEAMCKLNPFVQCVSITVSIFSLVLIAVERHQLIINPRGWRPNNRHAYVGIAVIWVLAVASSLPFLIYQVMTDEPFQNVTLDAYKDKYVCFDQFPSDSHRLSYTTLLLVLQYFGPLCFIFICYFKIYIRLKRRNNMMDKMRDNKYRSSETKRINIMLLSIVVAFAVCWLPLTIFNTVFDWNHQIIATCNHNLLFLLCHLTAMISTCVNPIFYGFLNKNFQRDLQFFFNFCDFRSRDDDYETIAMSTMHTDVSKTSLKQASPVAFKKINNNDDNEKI

HEK293 [15] = experiment: Fluorescence-based counterscreen for potentiators or agonists of NPY-Y2: cell-based high-throughput dose response assay to identify inhibitors of cyclic nucleotide gated ion channel (CNGC) activity. In this assay, the parental HEK293 cell line transfected with a cyclic-nucleotide gated ion channel (CNGC)-based cAMP sensor is used to measure inhibition of isoproterenol-induced CNGC activity by test compound.; assay type: functional; settings: Homo sapiens
Aminopeptidase N = molecular target: T4, Aminopeptidase N (Plasmodium falciparum FcB1/Columbia, UniProt O96935); experiment: malaria alanyl aminopeptidase activity blockers – biochemical, fluorogenic H-Leu-NHMec substrate, 1536-well (AID 1445); parameters: species or system Plasmodium falciparum 3D7, 3D7
T4 sequence (O96935 whole entry): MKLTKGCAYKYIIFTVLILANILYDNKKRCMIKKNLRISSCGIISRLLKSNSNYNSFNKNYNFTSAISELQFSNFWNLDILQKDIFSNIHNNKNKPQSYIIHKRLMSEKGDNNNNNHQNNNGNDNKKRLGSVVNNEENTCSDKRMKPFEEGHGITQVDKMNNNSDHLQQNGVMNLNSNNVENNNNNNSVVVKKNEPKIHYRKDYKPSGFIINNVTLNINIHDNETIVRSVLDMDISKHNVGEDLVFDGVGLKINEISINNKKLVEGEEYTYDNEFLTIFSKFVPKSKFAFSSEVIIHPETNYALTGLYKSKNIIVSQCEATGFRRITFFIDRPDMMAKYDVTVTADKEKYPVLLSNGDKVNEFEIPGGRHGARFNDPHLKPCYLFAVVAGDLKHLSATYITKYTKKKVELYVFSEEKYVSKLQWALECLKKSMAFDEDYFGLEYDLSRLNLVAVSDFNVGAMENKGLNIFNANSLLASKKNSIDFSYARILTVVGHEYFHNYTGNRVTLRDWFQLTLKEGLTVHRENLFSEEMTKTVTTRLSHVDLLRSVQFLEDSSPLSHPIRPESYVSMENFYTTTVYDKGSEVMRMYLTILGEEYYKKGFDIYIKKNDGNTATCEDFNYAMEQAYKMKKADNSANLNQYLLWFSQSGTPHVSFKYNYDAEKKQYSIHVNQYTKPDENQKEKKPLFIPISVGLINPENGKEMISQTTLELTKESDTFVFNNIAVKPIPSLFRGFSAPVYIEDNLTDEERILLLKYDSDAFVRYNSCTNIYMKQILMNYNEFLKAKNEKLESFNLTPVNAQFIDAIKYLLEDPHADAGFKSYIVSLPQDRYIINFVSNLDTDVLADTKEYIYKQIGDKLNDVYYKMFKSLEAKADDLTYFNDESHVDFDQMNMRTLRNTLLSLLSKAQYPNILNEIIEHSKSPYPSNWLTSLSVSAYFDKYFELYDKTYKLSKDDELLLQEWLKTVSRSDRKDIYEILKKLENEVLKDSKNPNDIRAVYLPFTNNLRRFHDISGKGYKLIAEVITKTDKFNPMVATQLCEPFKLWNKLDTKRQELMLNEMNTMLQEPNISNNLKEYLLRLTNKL

[16] = molecular target: T5, Neuropeptide Y receptor type 2 (Homo sapiens, UniProt P49146); experiment: Fluorescence-based cell-based high-throughput dose response assay for agonists of NPY-Y2. [Related pubchem assays: 1703 (Screening assay (CNGC inhibitors).), 1359 (Screening assay (NPY-Y2 potentiators or agonists).), 1304 (Screening assay (NPY-Y1 potentiators or agonists).), 1710 (Screening assay (NPY-Y2 agonists).), 1791 (Summary AID.)]; assay type: functional
T5 sequence (P49146 whole entry): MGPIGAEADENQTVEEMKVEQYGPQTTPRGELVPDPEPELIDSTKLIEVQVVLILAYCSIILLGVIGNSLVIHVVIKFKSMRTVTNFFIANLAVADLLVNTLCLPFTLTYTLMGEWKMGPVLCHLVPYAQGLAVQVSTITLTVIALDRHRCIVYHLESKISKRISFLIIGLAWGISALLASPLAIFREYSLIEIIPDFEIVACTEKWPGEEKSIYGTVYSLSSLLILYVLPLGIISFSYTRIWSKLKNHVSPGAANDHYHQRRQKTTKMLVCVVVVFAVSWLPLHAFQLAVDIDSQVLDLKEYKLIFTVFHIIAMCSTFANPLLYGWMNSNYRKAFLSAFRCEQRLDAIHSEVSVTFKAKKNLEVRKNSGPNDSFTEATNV

[17] = molecular target: Serine/threonine-protein phosphatase PP1-alpha catalytic subunit (Homo sapiens, UniProt P62136); experiment: inhibition of protein phosphatase 1 activity – biochemical, fluorescence, dose response (AID 2403);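 also: phosphatase turnover of OMFP into fluorescent 3-O-methylfluorescein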
[18] = molecular target: Serine/threonine-protein phosphatase (Homo sapiens, UniProt Q9BPW0); experiment: Counterscreen for inhibitors of PP1: fluorescence-based biochemical high throughput dose response assay to identify inhibitors of Protein Phosphatase 5 (PP5). [Related pubchem assays: 2034 (Summary (PP5 inhibitors)), 1987 (PP5 inhibitors in singlate), 2235 (PP1 inhibitors in singlate)]
Sequence of Serine/threonine-protein phosphatase (Q9BPW0 whole entry): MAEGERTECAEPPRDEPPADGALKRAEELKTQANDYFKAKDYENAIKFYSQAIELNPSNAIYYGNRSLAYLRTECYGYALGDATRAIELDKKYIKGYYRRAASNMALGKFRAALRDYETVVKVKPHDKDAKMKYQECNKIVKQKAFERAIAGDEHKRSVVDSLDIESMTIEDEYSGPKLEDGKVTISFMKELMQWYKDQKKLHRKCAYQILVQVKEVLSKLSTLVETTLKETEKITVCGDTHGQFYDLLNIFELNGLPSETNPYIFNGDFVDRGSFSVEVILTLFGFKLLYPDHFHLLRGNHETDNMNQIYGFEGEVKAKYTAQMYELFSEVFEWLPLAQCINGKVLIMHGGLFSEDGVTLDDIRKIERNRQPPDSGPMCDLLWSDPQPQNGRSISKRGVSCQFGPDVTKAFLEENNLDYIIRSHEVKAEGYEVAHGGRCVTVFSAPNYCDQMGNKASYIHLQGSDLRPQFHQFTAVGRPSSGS

[19] = alpha-synuclein stem-loop luciferase translation blockers – H4 neuroglioma cells, luminescence, confirmation (AID 1988); assay type: functional, cell-based
[20] = luciferase reporter signal suppression in cells – H4 neuroglioma cells, luminescence, dose response (AID 1990); assay type: functional, cell-based
[21] = blockers of HIV-1 ZM109 envelope-driven cell-cell fusion – HeLa effector, CEM target cells, luciferase, cherry-pick, dose response (AID 652058); assay type: functional, cell-based;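 also: luciferase signal from HIV-1 Env mediated cell-cell fusion of effector and target cells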
[22] = off-target signal loss in HeLa-CEM21 co-culture – HeLa F-luc CTL cells, cherry-picked, counter-screen for HIV-1 Env fusion inhibitor project, dose response (AID 652040); assay type: functional, cell-based;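 also: potency for signal decrease marking cytotoxic or nonspecific inhibition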
Wee1-like protein kinase = Wee1-like protein kinase (Homo sapiens, UniProt P30291); experiment: Dose Response Cell-based Assay for Inhibitors of Wee1 Degradation. [Related pubchem assays: 1410, 1321 ]; assay type: functional
[23] = blockers of HIV-1 envelope-mediated cell-cell fusion – cherry-pick, dose response (AID 652057); assay type: functional, cell-based
[24] = HIV-1 AD8 envelope cell-cell fusion blockers – cherry-pick, dose response (AID 652062); assay type: functional, cell-based;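 also: luciferase signal from cell-cell fusion driven by HIV-1 clade B AD8 Env; potency is for inhibitors of fusion seen as a drop in luminescence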
[25] = molecular target: G2/mitotic-specific cyclin-B1 (Homo sapiens, UniProt P14635); experiment: Counterscreen assay for inhibitors of Wee1 degradation: dose response cell-based assay to identify inhibitors of cyclin B degradation. [Related pubchem assays: 1410, 1321 ]; assay type: functional
Sequence of G2/mitotic-specific cyclin-B1 (P14635 whole entry): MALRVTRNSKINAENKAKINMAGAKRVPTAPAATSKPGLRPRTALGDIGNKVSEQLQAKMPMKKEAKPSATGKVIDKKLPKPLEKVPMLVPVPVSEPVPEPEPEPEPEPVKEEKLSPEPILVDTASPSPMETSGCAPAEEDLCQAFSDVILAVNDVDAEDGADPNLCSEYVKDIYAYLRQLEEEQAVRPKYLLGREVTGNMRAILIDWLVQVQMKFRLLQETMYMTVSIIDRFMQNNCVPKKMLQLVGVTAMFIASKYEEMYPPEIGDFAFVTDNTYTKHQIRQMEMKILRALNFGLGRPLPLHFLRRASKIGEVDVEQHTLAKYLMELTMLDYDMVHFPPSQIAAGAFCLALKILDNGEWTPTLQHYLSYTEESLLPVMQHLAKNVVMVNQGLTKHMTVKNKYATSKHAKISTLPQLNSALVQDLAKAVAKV

[26] = Luminescence Cell-Based Dose Response HTS to Identify Inhibitors of 5'UTR Stem-Loop Driven Prion Protein mRNA Translation in H4 Neuroglioblastoma Cells. [Related pubchem assays: 1827 (Project Summary), 1813 (Primary HTS)]; assay type: functional
HEK293 [27] = experiment: Fluorescence-based counterscreen for potentiators or agonists of NPY-Y1: cell-based high-throughput dose response assay for inhibitors of cyclic nucleotide gated ion channel (CNGC) activity. In this assay, the parental HEK293 cell line transfected with a cyclic-nucleotide gated ion channel (CNGC)-based cAMP sensor is used to measure inhibition of isoproterenol-induced CNGC …; assay type: functional; settings: Homo sapiens
[28] = molecular target: T3, Neuropeptide Y receptor type 1; experiment: Fluorescence-based dose response cell-based high-throughput screening assay for agonists of NPY-Y1. [Related pubchem assays: 1697 (Screening assay (NPY-Y1 agonists).), 1359 (Screening assay (NPY-Y2 potentiators or agonists).), 1304 (Screening assay (NPY-Y1 potentiators or agonists).), 1704 (Screening assay (CNGC inhibitors).), 1791 (Summary AID.)]; assay type: functional
[29] = molecular target: T5, Neuropeptide Y receptor type 2; experiment: Fluorescence-based counterscreen for agonists of NPY-Y1: cell-based high-throughput dose response assay for agonists of NPY-Y2.; assay type: functional

With `CCOC(=O)CNC(c1ccccc1)c1cc(Br)ccc1NC(C)=O` (centres undefined) the IC50 [1] was > 43.8 µM (not active) and the IC50 [2] was > 43.8 µM (not active).
In the case of `CC[C@@H](C)[C@H](NC(=O)OC(C)(C)C)c1nnc(S(=O)(=O)Cc2cc(C)ccc2C)o1`, the AC50 [3] was 5.77 µM (active), the IC50 (Beta Lactamase) was 15.2 µM (inactive) and the AC50 [4] was 45.1 µM (active). The EC50 (Streptokinase A) was 3.43 µM (active), the AC50 [5] was 15.4 µM (active) and the IC50 [6] was 3.12 µM (active). The EC50 (Streptococcus [7]) was > 150 µM (not active), the EC50 (Streptococcus [8]) was 33.5 µM (active) and the EC50 [9] was 16.2 µM (active). The IC50 (Fatty acid synthase [10]) was 4.12 µM (active), the IC50 (Fatty acid synthase [11]) was 3.33 µM (active) and the AC50 [12] was 4.36 µM (active).
In the case of `CCOC(=O)N1CCN(c2nc3ccccn3c(=O)c2C=O)CC1`, the AC50 [13] was 32.9 µM (active).
In the case of `COc1ccc(CC(=O)Nc2oc(-c3ccccc3)c(-c3ccccc3)c2C#N)cc1`, the IC50 (Staphylococcus aureus) was 1.96 µM (active).
With `COc1ccc(CN2C(=O)/C(=C\Nc3ccccc3C(=O)O)c3ccccc3C2=O)cc1` the EC50 [14] was > 11.8 µM (not active), the EC50 (HEK293 [15]) was > 35.4 µM (not active) and the IC50 (Aminopeptidase N) was 24.7 µM (active). For the same molecule, the EC50 [16] was > 35.4 µM (not active).
With `COc1cnc(-c2ccccn2)nc1Sc1ccc(F)cc1` the IC50 [17] was 7.21 µM (active) and the IC50 [18] was > 67 µM (not active).
With `CCOc1cccc(N(C(=O)Cc2cccs2)C(C(=O)NC2CCCCC2)c2cccn2C)c1` (centres undefined) the EC50 [19] was 19.1 µM (active), the EC50 [20] was 15.1 µM (active) and the AC50 [21] was 24.5 µM (active). The AC50 [22] was 55.9 µM (active), the EC50 (Wee1-like protein kinase) was > 49.7 µM (not active) and the AC50 [23] was 6.74 µM (active). For the same molecule, the AC50 [24] was 42 µM (active), the EC50 [25] was > 49.7 µM (not active) and the EC50 [26] was > 120 µM (not active).
With `CN(C)Cc1c(O)ccc2oc(Cc3ccccc3)cc12` the IC50 (HEK293 [27]) was > 35.4 µM (not active), the EC50 [28] was 14.7 µM (not active) and the EC50 [29] was > 35.4 µM (not active).
